Experimental data as given in US12466792B2 (priority 2021, dated 2025).

Legend:
SARS-COV-2 3CLpro = SARS-COV-2 3CLpro (Severe acute respiratory syndrome coronavirus 2, UniProt P0DTD1); assay: biochemical
SARS-COV-2 = assay: microbe, parasite or virus in culture; assay type: cell-based; conditions: Severe acute respiratory syndrome coronavirus 2, 72 h, read-out: ID50 (Antiviral Data)

| Compound | IC50 (SARS-COV-2 3CLpro) [nM] | IC50 (SARS-COV-2) [nM] |
| --- | --- | --- |
| COc1cccc2[nH]c(C(=O)N[C@@H](CC(C)C)C(=O)N[C@H](C#N)C[C@@H]3CCCNC3=O)cc12 | 1000 to 10000 | 10100 to 100000 |
| CC(C)C[C@H](NC(=O)OCc1ccncc1)C(=O)N[C@H](C#N)C[C@@H]1CCNC1=O | 0.1 to 999 | > 100000 |
| CC(C)C[C@H](NC(=O)OCc1ccncc1)C(=O)N[C@H](C#N)C[C@@H]1CCCNC1=O | 0.1 to 999 | > 100000 |
| CC(C)C[C@H](NC(=O)OCc1ccccn1)C(=O)N[C@H](C#N)C[C@@H]1CCCNC1=O | 0.1 to 999 | > 100000 |
| CC(C)C[C@H](NC(=O)OCc1cccnc1)C(=O)N[C@H](C#N)C[C@@H]1CCCNC1=O | 0.1 to 999 | > 100000 |
| CC(C)C[C@H](NC(=O)OCc1ccccc1)C(=O)N[C@H](C#N)C[C@@H]1CCCNC1=O | 0.1 to 999 | 1000 to 10000 |
| COc1cccc2[nH]c(C(=O)N(C)[C@@H](CC(C)C)C(=O)N[C@H](C#N)C[C@@H]3CCNC3=O)cc12 | 0.1 to 999 | > 100000 |
| C=CCN(C(=O)c1cc2c(OC)cccc2[nH]1)[C@@H](CC(C)C)C(=O)N[C@H](C#N)C[C@@H]1CCNC1=O | 0.1 to 999 | > 100000 |
| CC(C)C[C@@H](C(=O)N[C@H](C#N)C[C@@H]1CCNC1=O)N(C)C(=O)[C@@H](NC(=O)C(F)(F)F)C(C)(C)C | 0.1 to 999 | 10100 to 100000 |
| CC(C)C[C@@H](C(=O)N[C@H](C#N)C[C@@H]1CCNC1=O)N(C)C(=O)[C@@H](NC(=O)C(F)(F)F)C(C)C | 1000 to 10000 | 10100 to 100000 |
